Test results reported in paper PMC10202359, “Nicotinamide N-methyltransferase (NNMT) regulates the glucocorticoid signaling pathway during the early phase of adipogenesis” (Scientific Reports, 2023).
Read-outs that look alike come from different tables or passages of the source.

How the values were obtained:
DNMT1 = DNMT1 (Homo sapiens, UniProt P26358); test: Methyltransferase Hot Spot radioisotope assay, DNMT1; assay type: biochemical; conditions: 10-dose, threefold dilution; CC-410 from 300 μM, control from 100 μM; substrate Poly dI-dC
Experimental: (§1) CC-410 was screened in biochemical assays for activity against a panel of 11 methyltransferases (MT) by using the radioisotope (3H-AdoMet) based MT Hot Spot Assay. All the assays were performed by Reaction Biology Corporation (RBC, Malven, PA, USA). Briefly CC-410 was incubated with the selected MTs, corresponding substrates, and radiolabeled SAM (S-Adenosyl-L-[methyl-3 H]methionine). The specific MTs assessed, and the corresponding substrates are as follows: DNMT1- Poly dl-dC, DNMT3a- Lambda DNA, DNMT3b- Lambda DNA, DOT1L- Nucleosomes, EZH2 Complex- Core Histone, METTL21A- HSPA8-[CTD], NRMT1- RCC1, PRMT3- Histone H4, PRMT5/MEP50- Histone H2A, SET1b -Core Histone Complex and SMYD2- Nucleosomes. Reaction mixtures were incubated and spotted onto filter papers, which were then washed to remove unreacted SAM, leaving the bound radiolabeled product. Detection of the radiolabeled, methylated product was performed via a nanoliter-scale radioisotope filter binding platform. […] For each assay, control compounds were included as positive controls for enzyme function and assay reproducibility. […] IC50 was calculated by non-linear least square fitting dose–response curve.

SET1b Complex = biological target: T1, SET1b Complex (Homo sapiens, UniProt Q9UPS6); test: Methyltransferase Hot Spot radioisotope assay, SET1b Complex; assay type: biochemical
T1 construct: purchased Reaction Biology Corporation
Experimental: as §1

[1] = Lilly Open Innovation Drug Discovery high throughput screening
Description: CC-410 chemical structure was initially submitted to the Open Innovation Drug Discovery program[39] (Lilly Research Laboratories, Eli Lilly and Company, Indianapolis, USA), and it was selected for its novelty and drug-like properties, based on cheminformatic evaluation. Briefly, the submitted molecular structure was firstly processed based on the Lilly Medical Chemistry Rules, which are aimed at identifying and eventually excluding from screening those compounds that may interfere with biological assays. Next, structure-based filters, including MW, cLogP, solubility and toxicity among others were analyzed to select molecules with high druggable features. Additionally, the compound was also filtered based on the number of heavy atoms, number of rings, number of aromatic rings, ring size and other physicochemical properties. Solubility and permeability of the compound were also considered for the screening. For molecules passing the cheminformatic evaluation a substance check and comparison with known drugs (both Lilly and PubChem collections) was performed in order to select for novelty. Once the molecule passed this selection it was physically submitted to be tested with a high throughput screening study, querying the activity of the molecule against a wide variety of possible therapeutic targets.

NRMT1 = biological target: T2, NRMT1 (Homo sapiens, UniProt Q9BV86); test: Methyltransferase Hot Spot radioisotope assay, NRMT1; assay type: biochemical; conditions: 10-dose, threefold dilution; CC-410 from 300 μM, control from 100 μM; substrate RCC1
T2 sequence (Q9BV86 1-223): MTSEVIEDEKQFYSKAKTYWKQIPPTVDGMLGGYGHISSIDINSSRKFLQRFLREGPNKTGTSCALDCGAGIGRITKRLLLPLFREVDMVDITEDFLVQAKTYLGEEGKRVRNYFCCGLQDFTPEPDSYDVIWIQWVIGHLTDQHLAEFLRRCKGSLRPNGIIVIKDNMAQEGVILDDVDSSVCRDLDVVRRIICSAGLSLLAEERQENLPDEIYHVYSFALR
Experimental: as §1

human NNMT = biological target: T3, human NNMT (Homo sapiens, UniProt P40261); test: hNNMT enzymatic modulation, RapidFire SPE LC/MS assay (Lilly); assay type: biochemical
T3 sequence (P40261 1-264): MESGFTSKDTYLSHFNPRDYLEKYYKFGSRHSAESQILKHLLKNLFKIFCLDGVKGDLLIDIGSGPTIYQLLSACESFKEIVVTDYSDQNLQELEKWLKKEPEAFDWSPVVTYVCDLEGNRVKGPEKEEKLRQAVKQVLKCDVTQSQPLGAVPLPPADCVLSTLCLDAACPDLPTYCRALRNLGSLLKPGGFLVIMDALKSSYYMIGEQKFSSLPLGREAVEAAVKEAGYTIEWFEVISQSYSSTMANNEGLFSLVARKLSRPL

PRMT5/MEP50 = biological target: T4, PRMT5/MEP50 (Homo sapiens, UniProt O14744); test: Methyltransferase Hot Spot radioisotope assay, PRMT5/MEP50; assay type: biochemical; conditions: 10-dose, threefold dilution; CC-410 from 300 μM, control from 100 μM; substrate Histone H2A
T4 construct: purchased Reaction Biology Corporation
Experimental: as §1

EZH2 Complex = biological target: T5, EZH2 Complex (Homo sapiens, UniProt Q15910); test: Methyltransferase Hot Spot radioisotope assay, EZH2 Complex; assay type: biochemical; conditions: 10-dose, threefold dilution; CC-410 from 300 μM, control from 100 μM; substrate Core Histone
T5 construct: purchased Reaction Biology Corporation
Experimental: as §1

3T3-L1 cells = test: CellTiter-Blue cell viability assay, 3T3-L1; assay type: cell-based, mouse; conditions: highest concentration (1–25 uM tested), assessed at terminal differentiation
Experimental: CellTiter-Blue® Cell Viability Assay (Promega) was used following the manufacturer’s instructions. 3T3-L1 cells were seeded at a density of 2 × 10^3 cells per well in 96-well plates and cultured till confluence in standard medium. Two-day post-confluent 3T3-L1 cells were induced with DIM and treated with 1, 5, 10 and 25 µM CC-410 along with an untreated control (0.5% DMSO) in 4 different conditions: every 48 h throughout the differentiation period; once in the first 20 h following DIM stimulation; once 48 h after DIM stimulation; or after the early differentiation phase. In all cases, cell viability was assessed at terminal differentiation. Cell viability percentages were calculated by normalizing the fluorescence recorder (560/590) for the treated samples over untreated controls.

Sequence of DNMT1 (P26358 whole entry, species assumed): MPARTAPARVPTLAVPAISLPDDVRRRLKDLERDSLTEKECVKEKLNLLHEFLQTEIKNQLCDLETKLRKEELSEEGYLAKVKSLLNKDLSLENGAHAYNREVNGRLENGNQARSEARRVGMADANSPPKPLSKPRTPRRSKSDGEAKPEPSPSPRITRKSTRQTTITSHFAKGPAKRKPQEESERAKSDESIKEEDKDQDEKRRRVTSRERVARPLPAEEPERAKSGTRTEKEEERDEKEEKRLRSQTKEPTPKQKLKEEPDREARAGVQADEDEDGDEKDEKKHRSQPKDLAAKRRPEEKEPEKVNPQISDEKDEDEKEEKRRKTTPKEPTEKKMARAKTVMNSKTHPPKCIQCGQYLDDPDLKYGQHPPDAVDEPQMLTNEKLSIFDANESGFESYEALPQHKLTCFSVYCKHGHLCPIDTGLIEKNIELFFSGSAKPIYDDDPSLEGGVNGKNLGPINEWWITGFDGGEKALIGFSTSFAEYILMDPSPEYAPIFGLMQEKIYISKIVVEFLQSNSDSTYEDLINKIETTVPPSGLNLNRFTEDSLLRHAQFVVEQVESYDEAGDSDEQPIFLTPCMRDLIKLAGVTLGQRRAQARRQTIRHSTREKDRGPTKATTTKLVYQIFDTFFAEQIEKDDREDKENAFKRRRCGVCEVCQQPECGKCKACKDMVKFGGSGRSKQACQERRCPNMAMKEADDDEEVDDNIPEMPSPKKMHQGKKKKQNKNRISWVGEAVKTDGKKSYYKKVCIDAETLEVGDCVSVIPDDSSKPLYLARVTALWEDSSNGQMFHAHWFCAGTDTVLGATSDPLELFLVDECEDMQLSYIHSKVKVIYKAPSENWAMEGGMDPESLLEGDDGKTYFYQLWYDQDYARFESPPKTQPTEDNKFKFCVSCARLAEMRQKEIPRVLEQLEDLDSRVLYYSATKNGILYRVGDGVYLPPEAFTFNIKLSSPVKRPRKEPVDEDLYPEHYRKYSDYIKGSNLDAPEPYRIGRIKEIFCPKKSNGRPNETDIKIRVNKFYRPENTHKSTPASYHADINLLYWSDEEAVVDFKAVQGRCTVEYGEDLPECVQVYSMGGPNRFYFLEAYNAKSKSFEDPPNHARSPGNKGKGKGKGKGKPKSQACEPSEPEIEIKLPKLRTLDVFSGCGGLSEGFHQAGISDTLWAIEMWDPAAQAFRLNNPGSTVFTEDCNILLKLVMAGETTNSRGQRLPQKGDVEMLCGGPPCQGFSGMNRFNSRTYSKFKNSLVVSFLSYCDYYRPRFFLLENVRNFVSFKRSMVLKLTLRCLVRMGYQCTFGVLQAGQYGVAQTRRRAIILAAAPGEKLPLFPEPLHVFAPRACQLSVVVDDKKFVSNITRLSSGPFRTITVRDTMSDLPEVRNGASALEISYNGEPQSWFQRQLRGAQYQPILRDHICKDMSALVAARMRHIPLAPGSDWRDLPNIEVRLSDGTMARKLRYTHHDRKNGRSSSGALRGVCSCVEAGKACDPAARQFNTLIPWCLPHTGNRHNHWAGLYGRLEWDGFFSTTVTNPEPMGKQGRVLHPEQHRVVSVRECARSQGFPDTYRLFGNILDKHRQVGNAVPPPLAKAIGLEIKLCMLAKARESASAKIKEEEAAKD
T5 sequence (Q15910 whole entry): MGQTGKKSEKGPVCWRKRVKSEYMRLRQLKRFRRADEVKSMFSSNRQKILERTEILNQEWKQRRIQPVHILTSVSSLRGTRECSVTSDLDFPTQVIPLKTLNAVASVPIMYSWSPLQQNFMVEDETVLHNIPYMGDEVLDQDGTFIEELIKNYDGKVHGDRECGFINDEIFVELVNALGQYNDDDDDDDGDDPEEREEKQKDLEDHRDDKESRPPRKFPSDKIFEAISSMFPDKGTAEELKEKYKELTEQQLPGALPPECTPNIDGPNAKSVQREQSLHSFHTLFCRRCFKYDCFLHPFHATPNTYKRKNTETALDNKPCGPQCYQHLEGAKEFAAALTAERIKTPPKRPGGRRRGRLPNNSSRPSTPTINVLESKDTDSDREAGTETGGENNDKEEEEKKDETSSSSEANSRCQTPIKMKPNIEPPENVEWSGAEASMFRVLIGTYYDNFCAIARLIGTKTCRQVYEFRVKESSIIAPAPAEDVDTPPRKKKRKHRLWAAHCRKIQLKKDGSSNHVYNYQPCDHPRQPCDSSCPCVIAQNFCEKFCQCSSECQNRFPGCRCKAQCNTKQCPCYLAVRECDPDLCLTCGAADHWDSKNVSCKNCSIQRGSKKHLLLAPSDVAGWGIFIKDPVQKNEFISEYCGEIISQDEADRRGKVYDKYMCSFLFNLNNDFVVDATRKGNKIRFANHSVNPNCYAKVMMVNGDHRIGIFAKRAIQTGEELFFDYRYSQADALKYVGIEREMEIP
T5 sequence (O75530 whole entry partner): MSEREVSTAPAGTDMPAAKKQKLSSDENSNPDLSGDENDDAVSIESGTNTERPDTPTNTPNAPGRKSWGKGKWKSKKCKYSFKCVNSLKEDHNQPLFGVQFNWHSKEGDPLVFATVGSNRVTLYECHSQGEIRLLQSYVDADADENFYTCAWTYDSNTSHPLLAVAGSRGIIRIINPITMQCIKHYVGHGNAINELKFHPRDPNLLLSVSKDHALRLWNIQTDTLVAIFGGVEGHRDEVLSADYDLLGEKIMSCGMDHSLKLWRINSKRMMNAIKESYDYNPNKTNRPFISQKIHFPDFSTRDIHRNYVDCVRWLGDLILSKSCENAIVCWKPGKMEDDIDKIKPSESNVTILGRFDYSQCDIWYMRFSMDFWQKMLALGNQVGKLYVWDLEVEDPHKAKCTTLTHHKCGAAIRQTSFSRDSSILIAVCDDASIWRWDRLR
T5 sequence (Q15022 whole entry partner): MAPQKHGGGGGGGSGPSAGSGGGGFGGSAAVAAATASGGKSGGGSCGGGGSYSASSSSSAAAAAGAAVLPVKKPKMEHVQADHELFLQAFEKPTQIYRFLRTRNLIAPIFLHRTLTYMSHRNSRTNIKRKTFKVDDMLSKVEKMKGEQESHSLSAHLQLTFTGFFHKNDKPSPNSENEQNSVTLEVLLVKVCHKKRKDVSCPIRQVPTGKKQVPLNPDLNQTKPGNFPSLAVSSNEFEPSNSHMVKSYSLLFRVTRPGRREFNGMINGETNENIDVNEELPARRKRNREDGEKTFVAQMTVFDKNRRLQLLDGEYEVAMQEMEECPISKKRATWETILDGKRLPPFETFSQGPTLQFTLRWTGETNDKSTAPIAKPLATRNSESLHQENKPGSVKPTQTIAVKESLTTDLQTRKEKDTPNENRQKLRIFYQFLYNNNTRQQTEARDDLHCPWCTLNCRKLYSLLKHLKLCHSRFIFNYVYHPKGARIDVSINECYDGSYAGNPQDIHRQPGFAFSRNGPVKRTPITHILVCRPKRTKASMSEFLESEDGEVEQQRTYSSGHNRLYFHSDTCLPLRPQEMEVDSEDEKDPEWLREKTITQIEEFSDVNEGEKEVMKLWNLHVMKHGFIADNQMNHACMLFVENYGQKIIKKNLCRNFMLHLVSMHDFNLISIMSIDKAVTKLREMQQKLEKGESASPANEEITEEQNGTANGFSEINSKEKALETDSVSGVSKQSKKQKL
T5 sequence (Q09028 whole entry partner): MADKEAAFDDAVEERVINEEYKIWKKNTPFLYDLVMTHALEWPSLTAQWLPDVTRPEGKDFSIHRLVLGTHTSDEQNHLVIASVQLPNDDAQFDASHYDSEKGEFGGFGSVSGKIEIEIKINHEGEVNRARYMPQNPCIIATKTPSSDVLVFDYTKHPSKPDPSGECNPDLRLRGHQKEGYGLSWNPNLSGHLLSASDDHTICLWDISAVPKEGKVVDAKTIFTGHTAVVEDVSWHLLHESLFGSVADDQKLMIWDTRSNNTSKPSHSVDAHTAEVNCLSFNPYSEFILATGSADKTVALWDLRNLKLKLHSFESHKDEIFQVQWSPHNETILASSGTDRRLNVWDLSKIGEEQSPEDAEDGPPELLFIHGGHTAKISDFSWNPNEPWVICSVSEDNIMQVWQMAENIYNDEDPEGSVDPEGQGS
T5 sequence (Q6ZN18 whole entry partner): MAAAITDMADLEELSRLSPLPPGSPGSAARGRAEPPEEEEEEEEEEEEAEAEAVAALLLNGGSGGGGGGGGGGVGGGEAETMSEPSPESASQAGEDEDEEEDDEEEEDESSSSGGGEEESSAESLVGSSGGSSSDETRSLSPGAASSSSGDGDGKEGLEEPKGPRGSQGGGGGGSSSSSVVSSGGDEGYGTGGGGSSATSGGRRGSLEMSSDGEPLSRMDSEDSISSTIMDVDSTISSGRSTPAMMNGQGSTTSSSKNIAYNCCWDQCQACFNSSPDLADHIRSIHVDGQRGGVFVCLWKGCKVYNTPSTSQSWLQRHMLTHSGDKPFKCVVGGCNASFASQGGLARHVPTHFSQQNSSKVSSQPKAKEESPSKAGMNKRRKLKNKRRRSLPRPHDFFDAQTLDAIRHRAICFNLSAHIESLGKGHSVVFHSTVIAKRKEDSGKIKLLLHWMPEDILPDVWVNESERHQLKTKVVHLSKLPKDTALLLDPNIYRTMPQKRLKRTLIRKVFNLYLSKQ

COC(=O)CCC(C)C1CCC2C3C(N)CC4CC(OC(C)=O)CCC4(C)[C@H]3CC(N)C12C (stereo in doubt) [CC-410, Methyl-(4S)-4-((3S,5S,7S,8S,10R,12R,13S,14R,17S)-3-acetoxy-7,12-diamino-10,13-dimethylhexadecahydro-1H-cyclopenta[a]phenanthren-17-yl) pentanoate]
IC50* (M) DNMT1 (DNMT1): no inhibition or compound activity that could not be fitted to an IC50 curve | IC50 (SET1b Complex; 10-dose, threefold dilution, CC-410 from 300 μM, control from 100 μM, substrate Core Histone, read-out: IC50* (M) SET1b Complex): 0.000121 M | IC50 (SET1b Complex; text and Fig. 4D curve fit, read-out: IC50 for SET1b Complex): 0.00012 M | activity against a wide variety of possible therapeutic targets [1]: exclusive inhibitory activity against human NNMT | IC50* (M) NRMT1 (NRMT1): no inhibition or compound activity that could not be fitted to an IC50 curve | IC50 (human NNMT; MNAM product readout, LC/MS, Fig. 4B, read-out: hNNMT MNAN Rel IC50): 1640 nM | IC50 (human NNMT; automated solid-phase extraction and LC-MS, read-out: IC50 against human NNMT): 1600 nM | IC50 (human NNMT; hNNMT SAH Rel IC50, SAH product readout, LC/MS, Fig. 4B): 1700 nM | IC50* (M) PRMT5/MEP50 (PRMT5/MEP50): no inhibition or compound activity that could not be fitted to an IC50 curve | IC50* (M) EZH2 Complex (EZH2 Complex): no inhibition or compound activity that could not be fitted to an IC50 curve | cell viability (3T3-L1 cells): only a slight reduction in cell viability
